According to BigSolDB 2.1:

Nc1cc(Cl)ccc1C(=O)O
Conditions | solubility (mole fraction)
in 1,4-dioxane, 283.15 K | 0.0158
in 1,4-dioxane, 285.65 K | 0.0173
in 1,4-dioxane, 288.15 K | 0.0191
in 1,4-dioxane, 290.65 K | 0.0209
in 1,4-dioxane, 293.15 K | 0.0228
in 1,4-dioxane, 295.65 K | 0.0248
in 1,4-dioxane, 298.15 K | 0.0271
in 1,4-dioxane, 300.65 K | 0.0295
in 1,4-dioxane, 303.15 K | 0.032
in 1,4-dioxane, 305.65 K | 0.0348
in 1,4-dioxane, 308.15 K | 0.0375
in 1,4-dioxane, 310.65 K | 0.0405
in 1,4-dioxane, 313.15 K | 0.0436
in NMP, 278.15 K | 0.0323
in NMP, 280.65 K | 0.0338
in NMP, 283.15 K | 0.0354
in NMP, 285.65 K | 0.037
in NMP, 288.15 K | 0.0388
in NMP, 290.65 K | 0.0406
in NMP, 293.15 K | 0.0425
in NMP, 295.65 K | 0.0445
in NMP, 298.15 K | 0.0465
in NMP, 300.65 K | 0.0487
in NMP, 305.65 K | 0.0531
in NMP, 308.15 K | 0.0556
in NMP, 310.65 K | 0.0581
in NMP, 313.15 K | 0.0607
in acetone, 278.15 K | 0.0159
in acetone, 280.65 K | 0.0174
in acetone, 283.15 K | 0.0189
in acetone, 285.65 K | 0.0207
in acetone, 288.15 K | 0.0226
in acetone, 290.65 K | 0.0243
in acetone, 293.15 K | 0.0261
in acetone, 295.65 K | 0.0283
in acetone, 298.15 K | 0.0307
in acetone, 300.65 K | 0.0328
in acetone, 303.15 K | 0.0351
in acetone, 305.65 K | 0.0378
in acetone, 308.15 K | 0.0404
in acetone, 310.65 K | 0.0433
in acetone, 313.15 K | 0.0463
in acetonitrile, 278.15 K | 0.00138
in acetonitrile, 280.65 K | 0.00154
in acetonitrile, 283.15 K | 0.00169
in acetonitrile, 285.65 K | 0.00188
in acetonitrile, 288.15 K | 0.00208
in acetonitrile, 290.65 K | 0.00229
in acetonitrile, 293.15 K | 0.00252
in acetonitrile, 295.65 K | 0.00277
in acetonitrile, 298.15 K | 0.00303
in acetonitrile, 300.65 K | 0.00332
in acetonitrile, 303.15 K | 0.00362
in acetonitrile, 305.65 K | 0.00395
in acetonitrile, 308.15 K | 0.00431
in acetonitrile, 310.65 K | 0.00468
in acetonitrile, 313.15 K | 0.0051
in ethanol, 278.15 K | 0.00994
in ethanol, 280.65 K | 0.0109
in ethanol, 283.15 K | 0.0118
in ethanol, 285.65 K | 0.0129
in ethanol, 288.15 K | 0.014
in ethanol, 290.65 K | 0.0151
in ethanol, 293.15 K | 0.0164
in ethanol, 295.65 K | 0.0177
in ethanol, 298.15 K | 0.0191
in ethanol, 300.65 K | 0.0205
in ethanol, 303.15 K | 0.0221
in ethanol, 305.65 K | 0.0238
in ethanol, 308.15 K | 0.0255
in ethanol, 310.65 K | 0.0273
in ethanol, 313.15 K | 0.0293
in ethyl acetate, 278.15 K | 0.0125
in ethyl acetate, 280.65 K | 0.0136
in ethyl acetate, 283.15 K | 0.0149
in ethyl acetate, 285.65 K | 0.0161
in ethyl acetate, 288.15 K | 0.0176
in ethyl acetate, 290.65 K | 0.0191
in ethyl acetate, 293.15 K | 0.0206
in ethyl acetate, 295.65 K | 0.0222
in ethyl acetate, 298.15 K | 0.0241
in ethyl acetate, 300.65 K | 0.0259
in ethyl acetate, 303.15 K | 0.0278
in ethyl acetate, 308.15 K | 0.0321
in ethyl acetate, 310.65 K | 0.0343
in ethyl acetate, 313.15 K | 0.0368
in ethylbenzene, 278.15 K | 0.00011
in ethylbenzene, 280.65 K | 0.00013
in ethylbenzene, 283.15 K | 0.000149
in ethylbenzene, 285.65 K | 0.000172
in ethylbenzene, 288.15 K | 0.000196
in ethylbenzene, 290.65 K | 0.000224
in ethylbenzene, 293.15 K | 0.000255
in ethylbenzene, 295.65 K | 0.00029
in ethylbenzene, 298.15 K | 0.000326
in ethylbenzene, 300.65 K | 0.000371
in ethylbenzene, 303.15 K | 0.000418
in ethylbenzene, 305.65 K | 0.000472
in ethylbenzene, 308.15 K | 0.000528
in ethylbenzene, 310.65 K | 0.000594
in ethylbenzene, 313.15 K | 0.000664
in isopropanol, 278.15 K | 0.00925
in isopropanol, 280.65 K | 0.0101
in isopropanol, 283.15 K | 0.0111
in isopropanol, 285.65 K | 0.012
in isopropanol, 288.15 K | 0.0131
in isopropanol, 290.65 K | 0.0143
in isopropanol, 293.15 K | 0.0155
in isopropanol, 295.65 K | 0.0167
in isopropanol, 298.15 K | 0.0181
in isopropanol, 300.65 K | 0.0195
in isopropanol, 303.15 K | 0.0211
in isopropanol, 305.65 K | 0.0227
in isopropanol, 308.15 K | 0.0244
in isopropanol, 310.65 K | 0.0262
in isopropanol, 313.15 K | 0.0282
in n-butanol, 278.15 K | 0.00768
in n-butanol, 280.65 K | 0.0084
in n-butanol, 283.15 K | 0.00925
in n-butanol, 285.65 K | 0.0102
in n-butanol, 288.15 K | 0.0111
in n-butanol, 290.65 K | 0.0121
in n-butanol, 293.15 K | 0.0132
in n-butanol, 295.65 K | 0.0144
in n-butanol, 298.15 K | 0.0157
in n-butanol, 300.65 K | 0.017
in n-butanol, 303.15 K | 0.0184
in n-butanol, 305.65 K | 0.0199
in n-butanol, 308.15 K | 0.0215
in n-butanol, 310.65 K | 0.0232
in n-butanol, 313.15 K | 0.025
in n-propanol, 278.15 K | 0.00869
in n-propanol, 280.65 K | 0.0095
in n-propanol, 283.15 K | 0.0103
in n-propanol, 285.65 K | 0.0113
in n-propanol, 288.15 K | 0.0123
in n-propanol, 290.65 K | 0.0134
in n-propanol, 293.15 K | 0.0144
in n-propanol, 295.65 K | 0.0157
in n-propanol, 298.15 K | 0.017
in n-propanol, 300.65 K | 0.0184
in n-propanol, 303.15 K | 0.0198
in n-propanol, 305.65 K | 0.0214
in n-propanol, 308.15 K | 0.023
in n-propanol, 310.65 K | 0.0248
in n-propanol, 313.15 K | 0.0266
in toluene, 278.15 K | 0.000136
in toluene, 280.65 K | 0.000157
in toluene, 283.15 K | 0.00018
in toluene, 285.65 K | 0.000204
in toluene, 288.15 K | 0.000233
in toluene, 290.65 K | 0.000266
in toluene, 293.15 K | 0.000299
in toluene, 295.65 K | 0.000339
in toluene, 298.15 K | 0.000384
in toluene, 300.65 K | 0.000427
in toluene, 303.15 K | 0.000478
in toluene, 305.65 K | 0.000533
in toluene, 308.15 K | 0.000597
in toluene, 310.65 K | 0.000668
in toluene, 313.15 K | 0.000742
